# Measurements reported in patent publication US9416126B2, “Compounds inhibiting leucine-rich repeat kinase enzyme activity” (Merck Sharp & Dohme Corp., priority 2013, dated 2016).
# What was measured:
# [1] = target: T1, LRRK2(G2019S mutation, GST-LRRK2(amino acids 970-2527)) (Homo sapiens (Human), UniProt Q5S007, G2019S); test: LRRK2 5 mM ATP LanthaScreen Assay; format: biochemical
# Protocol: The data presented for the 5 mM and Km ATP LanthaScreen™ Assay represents mean IC50 values based on several test results and may have reasonable. deviations depending on the specific conditions and reagents used. Reagents for the LRRK2 5 mM and Km ATP LanthaScreen™ Assay were purchased from Life Technologies Corporation.
# LRRK2 5 mM ATP LanthaScreen™ Assay
# a) 400 nl of a 1:2.15 serial dilution of test compound(98 μM top assay concentration) is spotted via Labcyte Echo to certain wells in a 384 well black, untreated plate. Control wells contain 400 nl of either DMSO or 400 nl of a known inhibitor in DMSO.
# b) 10 μl of a 2.5 nM LRRK2(G2019S mutation, GST-LRRK2(amino acids 970-2527)) enzyme solution in 1× assay buffer(50 mM Tris pH 8.5, 10 mM MgCl2, 0.01% Brij-35, 1.0 mM EGTA, 2 mM DTT, 0.05 mM NaVO4) is added to all wells.
# c) A 30 minute room temperature incubation is followed by addition of 10 μl of 800 nM fluorescein labeled LRRKtide peptide substrate and 10 mM ATP solution in 1× assay buffer to all wells.
# d) After a 35 minute room temperature incubation, 20 μl of TR-FRET Dilution Buffer(Invitrogen PV3756B) containing 4 nM Tb-labeled anti-phospho LRRKtide antibody and 20 mM EDTA is added to all wells.
# e) Plates are incubated at room temperature for 1 hour and read on an Envision™ multi-mode plate reader with LanthaScreen™ settings. Results are analysed using Assay Data Analyzer.
# [2] = target: T1, LRRK2(G2019S mutation, GST-LRRK2(amino acids 970-2527)); test: LRRK2 Km ATP LanthaScreen Assay; format: biochemical
# In short: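 TR-FRET: GST-LRRK2 970-2527 G2019S (2.5 nM solution) preincubated 30 min with compound (98 μM top, 1:2.15 dilutions), then 800 nM fluorescein-LRRKtide and 184 μM ATP solution added for 60 min at room temperature in Tris pH 8.5 buffer. Stopped with EDTA and Tb anti-phospho-LRRKtide antibody; IC50 is a mean of several tests.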
# [3] = Km ATP (184 μM ATP solution), G2019S LRRK2, mean IC50
# T1 sequence (Q5S007 970-2527 G2019S): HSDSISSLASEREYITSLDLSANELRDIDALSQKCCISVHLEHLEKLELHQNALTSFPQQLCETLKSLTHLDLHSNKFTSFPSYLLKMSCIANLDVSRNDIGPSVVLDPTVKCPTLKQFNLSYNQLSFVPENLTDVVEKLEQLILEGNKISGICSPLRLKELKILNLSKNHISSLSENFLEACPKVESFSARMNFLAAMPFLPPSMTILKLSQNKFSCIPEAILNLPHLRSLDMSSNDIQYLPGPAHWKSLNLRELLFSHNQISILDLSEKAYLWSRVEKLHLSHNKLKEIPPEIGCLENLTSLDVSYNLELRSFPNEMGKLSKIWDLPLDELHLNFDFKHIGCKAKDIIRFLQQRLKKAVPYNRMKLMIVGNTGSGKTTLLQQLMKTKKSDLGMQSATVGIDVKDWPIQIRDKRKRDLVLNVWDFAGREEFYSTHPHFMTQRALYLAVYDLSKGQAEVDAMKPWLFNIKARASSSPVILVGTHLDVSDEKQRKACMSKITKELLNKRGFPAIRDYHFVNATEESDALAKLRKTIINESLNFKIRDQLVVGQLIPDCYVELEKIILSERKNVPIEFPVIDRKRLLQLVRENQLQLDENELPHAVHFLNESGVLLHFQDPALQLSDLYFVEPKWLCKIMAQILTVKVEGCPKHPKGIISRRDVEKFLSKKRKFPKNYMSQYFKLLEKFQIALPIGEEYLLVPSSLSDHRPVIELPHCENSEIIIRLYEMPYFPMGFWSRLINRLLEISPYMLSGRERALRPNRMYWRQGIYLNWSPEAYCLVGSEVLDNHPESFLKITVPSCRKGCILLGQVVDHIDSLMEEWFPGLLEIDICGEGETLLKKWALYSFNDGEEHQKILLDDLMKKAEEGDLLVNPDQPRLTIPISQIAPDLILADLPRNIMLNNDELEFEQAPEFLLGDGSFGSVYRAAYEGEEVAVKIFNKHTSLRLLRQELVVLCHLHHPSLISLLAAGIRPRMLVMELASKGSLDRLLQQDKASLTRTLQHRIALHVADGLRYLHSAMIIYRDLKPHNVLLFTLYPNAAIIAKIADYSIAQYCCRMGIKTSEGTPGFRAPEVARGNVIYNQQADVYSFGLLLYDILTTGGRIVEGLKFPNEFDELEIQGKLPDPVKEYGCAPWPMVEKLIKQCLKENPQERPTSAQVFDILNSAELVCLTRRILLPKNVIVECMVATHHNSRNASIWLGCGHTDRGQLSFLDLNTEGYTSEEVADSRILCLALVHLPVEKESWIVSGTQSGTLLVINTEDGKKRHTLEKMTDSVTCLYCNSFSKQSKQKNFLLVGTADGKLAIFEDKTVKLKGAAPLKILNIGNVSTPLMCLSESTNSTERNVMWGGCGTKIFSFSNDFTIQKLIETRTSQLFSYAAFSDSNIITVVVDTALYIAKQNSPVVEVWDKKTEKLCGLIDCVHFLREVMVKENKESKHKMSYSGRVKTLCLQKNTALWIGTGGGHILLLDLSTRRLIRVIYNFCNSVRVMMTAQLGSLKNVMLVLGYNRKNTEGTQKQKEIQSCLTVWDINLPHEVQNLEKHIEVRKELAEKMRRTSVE
Structure (SMILES),IC50 ([2]; Examples Q1-Q20),IC50 ([2]; Table U),further results
Cn1cc(-c2ccc3[nH]nc(-c4cc(N5CCOCC5)ncn4)c3c2)cn1 [Example A1],,,"IC50 [1]: 41 nM; IC50 [2, 3]: 2.31 nM"
Cn1cc(-c2ccc3[nH]nc(-c4cc(N5CCN(S(C)(=O)=O)CC5)ncn4)c3c2)cn1 [Example A3],,,"IC50 [1]: 36 nM; IC50 [2, 3]: 3.28 nM"
CCN1CCN(c2cc(-c3n[nH]c4ccc(-c5cnn(C)c5)cc34)ncn2)CC1 [Example A8],,,"IC50 [1]: 14 nM; IC50 [2, 3]: 0.76 nM"
Cn1nccc1-c1ccc2[nH]nc(-c3cc(N4CCOCC4)ncn3)c2c1 [Example P13],,,IC50 ([2]; Examples P1-P18): 45.7 nM
COc1ncccc1-c1ccc2[nH]nc(-c3cc(N4CCOCC4)ncn3)c2c1 [Example P14],,,IC50 ([2]; Examples P1-P18): 37.7 nM
Cc1nocc1-c1ccc2[nH]nc(-c3cc(N4CCOCC4)ncn3)c2c1 [Example P15],,,IC50 ([2]; Examples P1-P18): 59 nM
COCCn1cc(-c2ccc3[nH]nc(-c4cc(N5CCOCC5)ncn4)c3c2)cn1 [Example P16],,,IC50 ([2]; Examples P1-P18): 1.5 nM
COc1ccc(-c2ccc3[nH]nc(-c4cc(N5CCOCC5)ncn4)c3c2)cn1 [Example P17],,,IC50 ([2]; Examples P1-P18): 31.2 nM
O=C(NCCO)c1ccc(-c2ccc3[nH]nc(-c4cc(N5CCOCC5)ncn4)c3c2)cc1 [Example P18],,,IC50 ([2]; Examples P1-P18): 154 nM
C[C@@H]1CN(c2cc(-c3n[nH]c4ccc(-c5ccc6ncnn6c5)cc34)ncn2)C[C@H](C)O1 [Example Q1],240 nM,,
COc1ncccc1-c1ccc2[nH]nc(-c3cc(N4C[C@@H](C)O[C@@H](C)C4)ncn3)c2c1 [Example Q2],158 nM,,
C[C@@H]1CN(c2cc(-c3n[nH]c4ccc(-c5ccnn5C)cc34)ncn2)C[C@H](C)O1 [Example Q3],32.1 nM,,
Cc1cncc(-c2ccc3[nH]nc(-c4cc(N5C[C@@H](C)O[C@@H](C)C5)ncn4)c3c2)c1 [Example Q4],2.2 nM,,
Cc1nocc1-c1ccc2[nH]nc(-c3cc(N4C[C@@H](C)O[C@@H](C)C4)ncn3)c2c1 [Example Q5],40 nM,,
C[C@@H]1CN(c2cc(-c3n[nH]c4ccc(-c5ccncc5)cc34)ncn2)C[C@H](C)O1 [Example Q6],49.5 nM,,
COc1cnc(-c2ccc3[nH]nc(-c4cc(N5C[C@@H](C)O[C@@H](C)C5)ncn4)c3c2)cn1 [Example Q7],63.4 nM,,
C[C@@H]1CN(c2cc(-c3n[nH]c4ccc(-c5cncnc5)cc34)ncn2)C[C@H](C)O1 [Example Q8],30.3 nM,,
COc1ccc(-c2ccc3[nH]nc(-c4cc(N5C[C@@H](C)O[C@@H](C)C5)ncn4)c3c2)cn1 [Example Q9],41.1 nM,,
COc1cncc(-c2ccc3[nH]nc(-c4cc(N5C[C@@H](C)O[C@@H](C)C5)ncn4)c3c2)n1 [Example Q10],2.4 nM,,
C[C@@H]1CN(c2cc(-c3n[nH]c4ccc(-c5ccnc(C#N)c5)cc34)ncn2)C[C@H](C)O1 [Example Q11],172 nM,,
Cc1ncc(-c2ccc3[nH]nc(-c4cc(N5C[C@@H](C)O[C@@H](C)C5)ncn4)c3c2)nc1C [Example Q12],17.4 nM,,
C[C@@H]1CN(c2cc(-c3n[nH]c4ccc(-c5cnc(N6CCCC6)s5)cc34)ncn2)C[C@H](C)O1 [Example Q13],7.6 nM,,

Structure (SMILES),IC50 ([2]; Examples Q1-Q20),IC50 ([2]; Table U),further results
COCCn1cc(-c2ccc3[nH]nc(-c4cc(N5C[C@@H](C)O[C@@H](C)C5)ncn4)c3c2)cn1 [Example Q14],1.8 nM,,
COc1cc(-c2ccc3[nH]nc(-c4cc(N5C[C@@H](C)O[C@@H](C)C5)ncn4)c3c2)ccn1 [Example Q15],155 nM,,
C[C@@H]1CN(c2cc(-c3n[nH]c4ccc(-c5ccc6nncn6c5)cc34)ncn2)C[C@H](C)O1 [Example Q16],60.6 nM,,
C[C@@H]1CN(c2cc(-c3n[nH]c4ccc(-c5ccc(C(=O)NCCO)cc5)cc34)ncn2)C[C@H](C)O1 [Example Q17],77 nM,,
C[C@@H]1CN(c2cc(-c3n[nH]c4ccc(-c5ccc(C#N)cc5)cc34)ncn2)C[C@H](C)O1 [Example Q18],177 nM,,
C[C@@H]1CN(c2cc(-c3n[nH]c4ccc(-c5cccc(C#N)c5)cc34)ncn2)C[C@H](C)O1 [Example Q19],47.9 nM,,
CCN(CC)C(=O)c1ccc(-c2ccc3[nH]nc(-c4cc(N5C[C@@H](C)O[C@@H](C)C5)ncn4)c3c2)cc1 [Example Q20],847 nM,,
CC(C)=Cc1ccc2[nH]nc(-c3cc(N4CCO[C@H](C)C4)ncn3)c2c1 [Example S1],,,"IC50 [2, 3]: 16.4 nM"
CC(C)=Cc1ccc2[nH]nc(-c3cc(N4CCN(S(C)(=O)=O)CC4)ncn3)c2c1 [Example S2],,,"IC50 [2, 3]: 28.8 nM"
CC(C)=Cc1ccc2[nH]nc(-c3cc(N4CCN(C)CC4)ncn3)c2c1 [Example S3],,,"IC50 [2, 3]: 32.9 nM"
CC(C)=Cc1ccc2[nH]nc(-c3cc(N4CCN(C)C(=O)C4)ncn3)c2c1 [Example S4],,,"IC50 [2, 3]: 36.2 nM"
CC(C)=Cc1ccc2[nH]nc(-c3cc(N4C[C@@H](C)O[C@@H](C)C4)ncn3)c2c1 [Example S5],,,"IC50 [2, 3]: 20.3 nM"
c1cncc(-c2ccc3[nH]nc(-c4cc(N5CCOCC5)ncn4)c3c2)c1 [Example T1],,,"IC50 [2, 3]: 5.5 nM"
CS(=O)(=O)N1CCN(c2cc(-c3n[nH]c4ccc(-c5cccnc5)cc34)ncn2)CC1 [Example T2],,,"IC50 [2, 3]: 7.3 nM"
FC1(F)CCN(c2cc(-c3n[nH]c4ccc(-c5ccoc5)cc34)ncn2)CC1 [Example U1],,86.2 nM,
FC1(F)CCN(c2cc(-c3n[nH]c4ccc(-c5ccsc5)cc34)ncn2)CC1 [Example U2],,348 nM,
FC1(F)CCN(c2cc(-c3n[nH]c4ccc(C5=CCNCC5)cc34)ncn2)CC1 [Example U3],,120 nM,
COc1ccncc1-c1ccc2[nH]nc(-c3cc(N4CCC(F)(F)CC4)ncn3)c2c1 [Example U4],,6.66 nM,
CC1(C)CC(=O)C=C(c2ccc3[nH]nc(-c4cc(N5CCC(F)(F)CC5)ncn4)c3c2)C1 [Example U5],,7.08 nM,
FC1(F)CCN(c2cc(-c3n[nH]c4ccc(-c5cc[nH]n5)cc34)ncn2)CC1 [Example U6],,2.16 nM,
FC1(F)CCN(c2cc(-c3n[nH]c4ccc(-c5cn[nH]c5)cc34)ncn2)CC1 [Example U7],,5.69 nM,
c1nc(-c2n[nH]c3ccc(-c4ccoc4)cc23)cc(N2CCOCC2)n1 [Example U8],,19 nM,

Structure (SMILES),IC50 ([2]; Examples Q1-Q20),IC50 ([2]; Table U),further results
c1nc(-c2n[nH]c3ccc(-c4ccsc4)cc23)cc(N2CCOCC2)n1 [Example U9],,36.4 nM,
Cc1ncc(-c2ccc3[nH]nc(-c4cc(N5CCOCC5)ncn4)c3c2)s1 [Example U10],,2.2 nM,
CC1(C)CC(=O)C=C(c2ccc3[nH]nc(-c4cc(N5CCOCC5)ncn4)c3c2)C1 [Example U11],,1.63 nM,
C1=C(c2ccc3[nH]nc(-c4cc(N5CCOCC5)ncn4)c3c2)CCNC1 [Example U12],,71.6 nM,
COc1ccncc1-c1ccc2[nH]nc(-c3cc(N4CCOCC4)ncn3)c2c1 [Example U13],,1.72 nM,
c1cc(-c2ccc3[nH]nc(-c4cc(N5CCOCC5)ncn4)c3c2)[nH]n1 [Example U14],,2.63 nM,
Cc1ccc(-c2ccc3[nH]nc(-c4cc(N5CCOCC5)ncn4)c3c2)cc1 [Example U15],,251 nM,
c1nc(-c2n[nH]c3ccc(-c4cn[nH]c4)cc23)cc(N2CCOCC2)n1 [Example U16],,2.3 nM,
O=C1C=C(c2ccc3[nH]nc(-c4cc(N5CCOCC5)ncn4)c3c2)CCC1 [Example U17],,1.63 nM,
Clc1cc(-c2ccc3[nH]nc(-c4cc(N5CCOCC5)ncn4)c3c2)ccn1 [Example U18],,266 nM,
Cc1n[nH]c(C)c1-c1ccc2[nH]nc(-c3cc(N4CCOCC4)ncn3)c2c1 [Example U19],,2.58 nM,
CC(C)N1CCN(c2cc(-c3n[nH]c4ccc(-c5cccs5)cc34)ncn2)CC1 [Example U21],,61.5 nM,
CC(C)N1CCN(c2cc(-c3n[nH]c4ccc(-c5ccoc5)cc34)ncn2)CC1 [Example U22],,9.03 nM,
COc1ccncc1-c1ccc2[nH]nc(-c3cc(N4CCN(C(C)C)CC4)ncn3)c2c1 [Example U23],,1.26 nM,
CC(C)N1CCN(c2cc(-c3n[nH]c4ccc(-c5cn[nH]c5)cc34)ncn2)CC1 [Example U24],,0.96 nM,
CC(C)N1CCN(c2cc(-c3n[nH]c4ccc(-c5ccn[nH]5)cc34)ncn2)CC1 [Example U25],,2.34 nM,
COc1ccncc1-c1ccc2[nH]nc(-c3cc(N4C[C@@H](C)O[C@@H](C)C4)ncn3)c2c1 [Example U26],,0.75 nM,
C[C@@H]1CN(c2cc(-c3n[nH]c4ccc(-c5cn[nH]c5)cc34)ncn2)C[C@H](C)O1 [Example U27],,1.35 nM,
C[C@@H]1CN(c2cc(-c3n[nH]c4ccc(-c5ccn[nH]5)cc34)ncn2)C[C@H](C)O1 [Example U28],,1.44 nM,
Cc1n[nH]c(C)c1-c1ccc2[nH]nc(-c3cc(N4CCO[C@H](C)C4)ncn3)c2c1 [Example U29],,3.2 nM,
FC1(F)CCN(c2cc(-c3n[nH]c4ccc(-c5cccnc5)cc34)ncn2)CC1 [U],,,"IC50 [2, 3]: 11.1 nM"
CC(C)Cc1ccc2[nH]nc(-c3cc(N4CCOCC4)ncn3)c2c1 [V],,,"IC50 [2, 3]: 56 nM"
